Source: patent US12280090B2, “Antimicrobial peptides” (priority 2018, dated 2025)
≈ marks a conversion by molar mass, not a printed value. Peptide text beside a SMILES is read from it.

Experiments:
Assay type in all cases: cell-based
[1] = system: Escherichia coli—ATCC 25922 “wild type”
Description: (§1) Independent experiments were conducted with four strains of E. coli, including ATCC E. coli (Escherichia coli—ATCC 25922 “wild type”); ESBL E. coli (Escherichia coli—Extended spectrum beta-lactamase); CPO E. coli (KPC) (Escherichia coli—Carbapenemase-producing organism; Klebsiella pneumoniae carbapenemase); and CPO E. coli (NDM) (Escherichia coli—Carbapenemase-producing organism; New-Dehli Metallobetalactamase).
(§2) The ATCC (American Type Culture Collection) strains received from Cedarlane. Multi drug resistant (MDR) strains, as clinical isolates, were received from the laboratory of Dr. Linda Hoang.
(§3) Putative antimicrobial peptides were synthesized by GeneScript. A-list antimicrobial peptides re-synthesized by GeneScript. P2_CCH, P5_CCH, and P5_CCH_A19K were each synthesized under two conditions: standard synthesis using TFA, and the other with TFA-removal using acetate as a counter-ion. A MIC method, adapted for use with cationic antimicrobial peptides, was used to evaluate MIC antimicrobial activity (Hancock 1999).
(§4) The following data are presented to show the activity (MIC/MBC in μg/mL) of certain antimicrobial peptides described herein relative to a modified/synthetic version having a specified substitution. While data presented in tables above may be presented again, or may be represented in data provided in the tables below, such duplication is believed to assist the reader in readily noting comparisons. Different Run Numbers noted in the following tables denotes experiments conducted on different days, with each run reflecting multiple n values.

[2] = system: Escherichia coli—Carbapenemase-producing organism; Klebsiella pneumoniae carbapenemase
Description: as §1, §2, §3, §4

[3] = system: Escherichia coli—Carbapenemase-producing organism; New-Dehli Metallobetalactamase
Description: as §1, §2, §3, §4

[4] = system: Escherichia coli—Extended spectrum beta-lactamase
Description: as §1, §2, §3, §4

[5] = system: Salmonella Heidelberg (MDR)
Source text: as §2, §3, §4

SMILES: CC[C@H](C)[C@H](NC(=O)CNC(=O)[C@@H](NC(=O)[C@@H](NC(=O)[C@H](CCCCN)NC(=O)CNC(=O)[C@@H](NC(=O)[C@H](CCCCN)NC(=O)[C@H](CCCCN)NC(=O)[C@@H](NC(=O)[C@@H](NC(=O)[C@H](CC(=O)O)NC(=O)[C@H](CC(C)C)NC(=O)[C@H](CC(C)C)NC(=O)CN)[C@@H](C)CC)[C@@H](C)CC)[C@@H](C)O)[C@@H](C)O)[C@@H](C)O)C(=O)N[C@@H](CC(C)C)C(=O)N[C@@H](CCSC)C(=O)N[C@@H](CC(=O)O)C(=O)N[C@H](C(=O)N[C@@H](CC(C)C)C(=O)N[C@@H](CCCCN)C(=O)N[C@@H](CS)C(=O)N[C@@H](CS)C(=O)N[C@@H](CCSC)C(=O)N[C@H](C(=O)NCC(=O)N[C@@H](CCCNC(=N)N)C(=O)N[C@@H](CS)C(=O)N1CCC[C@H]1C(=O)N1CCC[C@H]1C(=O)N[C@@H](CO)C(=O)N[C@@H](CO)C(=O)O)[C@@H](C)O)[C@@H](C)O [P3_CCH_D8K_Q23C] (H-GLLDIIKKTGKTTGILMDTLKCCMTGRCPPSS-OH; N-terminus and C-terminus assumed)
- MBC [1]: 64 µg/mL (≈ 18.9 µM)
- MIC [1]: 64 µg/mL (≈ 18.9 µM)
- Minimum Inhibitory Concentration (MIC) [1]: 64 µg/mL
- Minimum Inhibitory Concentration (MIC) [2]: 64 to 128 µg/mL
- MBC [3]: 128 µg/mL (≈ 37.8 µM)
- MIC [3]: 128 µg/mL (≈ 37.8 µM)
- Minimum Inhibitory Concentration (MIC) ([3]; CPO E. coli NDM, Gram negative): 128+ ug/mL
- Minimum Inhibitory Concentration (MIC) [4]: 64 µg/mL
- MIC [5]: 256 µg/mL (≈ 75.7 µM)
